Our source for the MIC and MBC values is article PMC7838546, “A Thermostable, Modified Cathelicidin-Derived Peptide With Enhanced Membrane-Active Activity Against Salmonella enterica serovar Typhimurium” (Frontiers in Microbiology, 2021).

The test system of this assay is S. enterica serovar Typhimurium ATCC 13311. In kind it is cell-based, Salmonella enterica serovar Typhimurium. On the procedure: A modified version of the National Committee for Clinical Laboratory Standards (NCCLS) broth microdilution method ([Steinberg et al., 1997]) was used to determine the minimum inhibitory concentrations (MICs) of peptide and compared to that of nisin. Fifty microliters of two-fold serial dilutions of each peptide [0.98–250 μg/ml in 0.01% (v/v) acetic acid and 0.2% (w/v) bovine serum albumin (BSA, Sigma-Aldrich, MO, United States)], were incubated with 50 μl of bacterial suspensions (approximately 10^7 CFU/ml) at 37°C for 24 h in a shaking incubator. MICs were taken as the lowest concentration of peptide at which growth was inhibited as observed by visual inspection. Bacterial cultures without peptides and uncultured broth were used as positive and negative controls, respectively. Minimal bactericidal concentrations (MBCs) were determined using a colony count assay ([Clinical Laboratory Standards Institute [CLSI], 2015]). Fifty microliters of samples from each non-turbid well in the MIC determination experiment was plated on Mueller Hinton Agar (MHA) and colonies were observed after overnight incubation at 37°C. MBCs were designated as the least concentration showing no colony growth on the plate. All of experiments were performed in triplicate.
The stability of P7 was tested by determining its antibacterial activity after exposure to different environmental conditions (high salt concentration, different ranges of pH, proteolytic enzymes and high temperatures) as previously described ([Shwaiki et al., 2020]). To test the effect of salts on the antibacterial activity of P7, 10^7 CFU/ml of S. enterica serovar Typhimurium ATCC 13311 was exposed to two-fold serially diluted concentrations (0.98–250 μg/ml) of P7 in the presence of different salts including NaCl (150 mM), KCl (4.5 mM), MgCl2 (1 mM), NH4Cl (6 μM), ZnCl2 (8 μM), FeCl3 (4 μM), and CaCl2 ([…]) ([Xu et al., 2014]). To determine pH stability, the pH of the peptide’s solution was adjusted to 3, 5, 7, 9, and 11 using 1 M NaOH or 1 M acetic acid (CH3COOH). P7 were incubated in the different pH conditions for 1 h, then transferred to inoculated MHB for antibacterial testing ([Chen et al., 2020]), There was no change of the pH following the addition of peptide. To determine the sensitivity of peptide to proteolytic enzymes, the residual activity of P7 was measured after incubation the peptide with 1 mg/ml (final concentration) of proteolytic enzymes (pepsin or trypsin) at 37°C for 1 h and heat denaturation at 80°C for 1 h. To study thermostability, peptides were pre-incubated without bacteria at various temperatures (40, 60, 80, and 100°C) for 1 h and left to cool for 30 min before testing. After these treatments, the antibacterial assays were carried out and MICs determined as described in section “Antibacterial activity assay.”

The mark [1] stands for this setting: peptide pre-incubated at 40°C for 1 h, cooled 30 min.

Where two headings read alike, the source gives them in different places. Ends that are not written are not given here.

By MIC is commonly meant the lowest concentration that inhibits growth of the organism. Usually MBC stands for the smallest concentration meeting the test's criterion for killing. As for KIAKRIWKILRR-NH2 [P7], the MIC is, setting by setting: (ATCC 13311, 1 h) 7.81 µg/mL; (ATCC 13311, 1 h, pH 3) 7.81 µg/mL; (ATCC 13311, 1 h, pH 5) 7.81 µg/mL; (ATCC 13311, 1 h, pH 7) 7.81 µg/mL; (ATCC 13311, 1 h, pH 9) 7.81 µg/mL; (ATCC 13311, 1 h, pH 11) 7.81 µg/mL. Besides, the MIC by setting is: (ATCC 13311, 24 h) 7.81 µg/mL; (Control (no salt)) 3.91 µg/mL; (MgCl2 (1 mM)) 31.25 µg/mL; (NaCl (150 mM)) 31.25 µg/mL; (after pepsin 1 mg/ml, 37°C, 1 h, then heat denaturation 80°C) 31.25 µg/mL; (after trypsin 1 mg/ml, 37°C, 1 h, then heat denaturation 80°C) 31.25 µg/mL. For the same substance, the MIC by setting is: under setting [1], 3.91 µg/mL; (peptide pre-incubated at 60°C for 1 h, cooled 30 min) 3.91 µg/mL. The MBC runs as follows: (ATCC 13311, 1 h, pH 3) 15.63 µg/mL; (ATCC 13311, 1 h, pH 5) 7.81 µg/mL; (ATCC 13311, 1 h, pH 7) 7.81 µg/mL; (ATCC 13311, 1 h, pH 9) 7.81 µg/mL; (ATCC 13311, 1 h, pH 11) 15.63 µg/mL; (Control (no salt)) 3.91 µg/mL. This substance came in with an MBC under setting [1] of 3.91 µg/mL.
